Key:
[1] = Half life of aerial oxidation of the compound at pH 3; assay type: physicochemical
[2] = Prodrug conversion in Tris/HCl buffer assessed as Escherichia coli MPT synthase-mediated 2-amino-6-(3,4-dihydroxybut-1-ynyl)pteridin-4(3H)-one formation after 30 mins by HPLC analysis; assay type: ADME; conditions: 0.5 h
[3] = Prodrug conversion in HEPES buffer assessed as Escherichia coli MPT synthase-mediated 2-amino-6-(3,4-dihydroxybut-1-ynyl)pteridin-4(3H)-one formation measured as activation of human apo-sulfite oxidase incubated for 30 mins prior to apo-sulfite oxidase addition measured after 30 mins by spectrophotometric analysis in presence of gephyrin; conditions: 0.5 h

Structure (SMILES): Nc1nc2c(c(=O)[nH]1)N[C@@H]1[C@H](N2)O[C@@H]2COP(=O)(O)O[C@@H]2C1(O)O [FOSDENOPTERIN]
- half-life [1]: 10.6 h
- Drug metabolism [2]: Active
- Drug metabolism [3]: Active

Structure (SMILES): Br.Nc1nc2c(c(=O)[nH]1)N[C@@H]1[C@H](N2)O[C@@H]2COP(=O)(O)O[C@@H]2C1(O)O
- Drug metabolism [2]: Dose-dependent effect
- Drug metabolism [3]: Dose-dependent effect
